A value given as a limit tells only on which side of the number the result lay.

The text below walks through data of patent publication US9102671B2, “Compounds and compositions as TRK inhibitors” (Novartis AG, priority 2011, dated 2015).

Assay [1] deals with T1, Ba/F3 cells co-expressing full length rTrkA and mNGF (Rattus norvegicus, UniProt P35739).
T1 construct: co-expressing full length rTrkA and mNGF; expressed in transfected cells; host or cells: Ba/F3 murine hematopoietic progenitor cells
T1 sequence (P35739 33-799): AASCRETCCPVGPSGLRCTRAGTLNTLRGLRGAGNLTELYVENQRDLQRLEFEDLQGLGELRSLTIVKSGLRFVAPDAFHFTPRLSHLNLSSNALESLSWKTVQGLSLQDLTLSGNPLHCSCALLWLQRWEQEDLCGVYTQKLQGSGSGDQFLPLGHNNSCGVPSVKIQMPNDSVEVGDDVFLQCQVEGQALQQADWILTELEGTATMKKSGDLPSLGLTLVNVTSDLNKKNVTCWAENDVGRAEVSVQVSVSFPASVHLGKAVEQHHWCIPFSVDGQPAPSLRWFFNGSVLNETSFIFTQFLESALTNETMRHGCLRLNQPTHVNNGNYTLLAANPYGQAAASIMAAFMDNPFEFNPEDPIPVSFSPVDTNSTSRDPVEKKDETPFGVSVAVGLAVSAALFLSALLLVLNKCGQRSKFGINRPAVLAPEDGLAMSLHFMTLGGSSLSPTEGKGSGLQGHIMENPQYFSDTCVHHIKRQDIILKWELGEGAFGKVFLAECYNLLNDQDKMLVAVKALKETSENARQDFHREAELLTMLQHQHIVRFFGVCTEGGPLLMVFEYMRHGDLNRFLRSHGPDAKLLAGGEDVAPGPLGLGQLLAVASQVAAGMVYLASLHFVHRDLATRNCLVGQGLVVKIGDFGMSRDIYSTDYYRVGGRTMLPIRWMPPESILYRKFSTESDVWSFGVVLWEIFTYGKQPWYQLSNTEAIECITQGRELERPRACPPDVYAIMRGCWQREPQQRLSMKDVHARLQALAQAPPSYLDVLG
T1 sequence (P01139 122-241 partner): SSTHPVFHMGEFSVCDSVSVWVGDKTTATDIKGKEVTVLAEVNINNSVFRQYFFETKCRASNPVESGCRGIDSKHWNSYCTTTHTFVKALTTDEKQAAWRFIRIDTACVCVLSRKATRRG
The experiment in a line: Ba/F3 cell proliferation, BaF3/TRKA-NGF. Format: cell-based. Conditions: inhibition of proliferation, 48 hours, Bright-Glo luminescence.

The subject of assay [2] is parental (untransformed) Ba/F3 cells. The experiment in a line: Ba/F3 cell proliferation, BAF3/WT (parental, IL3). The format is cell-based, murine. Conditions: Mus musculus, inhibition of proliferation of parental cells with IL3, 48 hours, Bright-Glo luminescence. On the procedure: (§1) Test compounds were dissolved in DMSO (10 mM) and transferred into 1.4 mL flat bottom or V-shaped Matrix tubes carrying a unique 2D matrix chip by individual compound hubs. The numbers of these chips were distinctively linked to the individual compound identification numbers. The stock solutions were stored at −20° C. if not used immediately. For the test procedure the vials were defrosted and identified by a scanner whereby a working sheet is generated that guides the subsequent working steps.
(§2) Compound dilutions were made in 384 well plates. This format enabled the assay of maximally 28 individual test compounds at 11 concentrations (single points) including 2 reference compounds. The dilution protocol included the production of pre-dilution plates, master plates and assay plates: • Compound plates: 30 μL of individual compound (10 mM) DMSO solution including reference compound were transferred into columns 1 and 13 of a 384 well plate. 20 μL of DMSO were added to the rest of the wells and the compounds were serially diluted (1:3) by transferring 10 μL from a well in column 1 or 13 to the next well in column 2 or 14 respectively and successively with the help of a Minitrack robot. • Assay plates: Identical assay plates were then prepared by adding 50 nL each of compound dilutions of the compound plates into 384-well “assay plates”. In the following the compounds were mixed with 50 μL of assays components (cells or enzyme) and tested for their inhibitory activity.
Compounds were tested for their ability to inhibit the proliferation of wt Ba/F3 cells and Ba/F3 cells transformed with constitutively expressed luciferase reporter and BCR-ABL or Tel-FMS or other Tel fusion kinases (EGFR, JAK2, ALK, BMX, FGFR3, FGFR4, FGR2, FLT1, FLT3, IGF1R, INSR, KDR, KIT, LCK, LYN, MEK, MET, PDGFRα, PDGFRβ, RET, RON, ROS, SRC, SYK, TIE and TYRO) or BRafV600E. Parental Ba/F3 cells were maintained in media containing recombinant mouse IL3 and the kinase transformed Ba/F3 cells were maintained in media without IL-3. 7.5 nl of compounds were spotted to each well of 1536-well assay plates by Liquid handling System Echo 555 (Labcyte). 700 cells were then plated into each well of the assay plates in 7 uL culture media per well and compounds were tested at 0.17 nM to 10 uM in 3-fold serial dilutions. The cells were then incubated for 48 hours at 37° C. 3 uL of Bright-Glo® (Promega) was added to each well and the plates were read using ViewLux (PerkinElmer).
The cell line used is the luciferase expressing Ba/F3 murine hematopoietic progenitor cell line transformed with human Tel-TrkA, Tel-TrkB or Tel-TrkC cDNAs (Ba/F3 EN A/B/C). These cells maintained in RPMI/10% fetal bovine serum (RPMI/FCS) supplemented with penicillin 50 mg/mL, streptomycin 50 mg/mL and L-glutamine 200 mM. Untransformed Ba/F3 cells were similarly maintained with the addition 5 ng/ml of murine recombinant IL3. 50 μl of a Ba/F3 or Ba/F3 EN A/B/C cell suspension were plated in Greiner 384 well microplates (white)) at a density of 2000 cells per well. 50 nl of serially diluted test compound (10-0.0001 mM in DMSO solution) is added to each well. The cells were incubated for 48 hours at 37° C., 5% CO2. 25 μl of Bright Glo® (Promega) luciferase substrate is added to each well. The emited luminiscence is quantified using ViewLux (PerkinElmer). IC50 values were calculated by linear regression analysis of the percentage inhibition of each compound at 11 concentrations. […]

Assay [3] deals with T2, Ba/F3 cells transformed with human Tel-TrkA (Homo sapiens, UniProt P04629).
T2 construct: expressed in transfected cells; host or cells: luciferase expressing Ba/F3 murine hematopoietic progenitor cell line; the other entry of the earlier key: ETV6 (P41212, Transcription factor ETV6)
T2 sequence (P04629 510-796 limits assumed): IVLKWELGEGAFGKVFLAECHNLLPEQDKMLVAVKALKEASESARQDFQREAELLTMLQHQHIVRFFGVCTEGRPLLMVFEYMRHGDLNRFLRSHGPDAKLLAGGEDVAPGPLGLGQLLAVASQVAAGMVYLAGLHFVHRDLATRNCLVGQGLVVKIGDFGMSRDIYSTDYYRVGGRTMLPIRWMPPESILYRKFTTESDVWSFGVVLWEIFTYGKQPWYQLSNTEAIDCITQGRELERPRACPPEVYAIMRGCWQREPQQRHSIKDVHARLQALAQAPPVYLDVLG
The experiment in a line: Ba/F3 cell proliferation, Ba/F3 Tel-TrkA. To be noted: inhibition of proliferation, 48 hours, Bright-Glo luminescence; read-out: Ba/F3Tel-TrkA. The format is cell-based. On the procedure: as §1, §2
The cell line used is the luciferase expressing Ba/F3 murine hematopoietic progenitor cell line transformed with human Tel-TrkA, Tel-TrkB or Tel-TrkC cDNAs (Ba/F3 EN A/B/C). These cells maintained in RPMI/10% fetal bovine serum (RPMI/FCS) supplemented with penicillin 50 mg/mL, streptomycin 50 mg/mL and L-glutamine 200 mM. Untransformed Ba/F3 cells were similarly maintained with the addition 5 ng/ml of murine recombinant IL3. 50 μl of a Ba/F3 or Ba/F3 EN A/B/C cell suspension were plated in Greiner 384 well microplates (white)) at a density of 2000 cells per well. 50 nl of serially diluted test compound (10-0.0001 mM in DMSO solution) is added to each well. The cells were incubated for 48 hours at 37° C., 5% CO2. 25 μl of Bright Glo® (Promega) luciferase substrate is added to each well. The emited luminiscence is quantified using ViewLux (PerkinElmer). IC50 values were calculated by linear regression analysis of the percentage inhibition of each compound at 11 concentrations.
In certain examples compounds of Formula (I) have IC50 values from 0.1 nM 1 μM. In other examples, compounds of Formula (I) have IC50 values from 0.0001 μM to 0.8 μM. In other examples, compounds of Formula (I) have IC50 values from 0.0001 μM to 0.6 μM. In other examples, compounds of Formula (I) have IC50 values from 0.0001 μM to 0.4 μM. In other examples, compounds of Formula (I) have IC50 values from 0.0001 μM to 0.2 μM. In other examples, compounds of Formula (I) have IC50 values from 0.0001 μM to 0.1 μM. In other examples, compounds of Formula (I) have IC50 values from 0.0001 μM to 0.08 μM. In other examples, compounds of Formula (I) have IC50 values from 0.0001 μM to 0.06 μM. In other examples, compounds of Formula (I) have IC50 values from 0.0001 μM to 0.04 μM. In other examples, compounds of Formula (I) have IC50 values from 0.0001 μM to 0.02 μM. In other examples, compounds of Formula (I) have IC50 values from 0.0001 μM to 0.01 μM. In other examples, compounds of Formula (I) have IC50 values from 0.01 μM to 1 μM.

Take `CCOC(=O)c1cnn2ccc(N3C[C@@H](F)C[C@@H]3c3cccc(F)c3)cc12` [Example X-1, ethyl 5-((2R,4S)-4-fluoro-2-(3-fluorophenyl)pyrrolidin-1-yl)pyrazolo[1,5-a]pyridine-3-carboxylate]: the IC50 was 1 nM in assay [1] and 4100 nM in assay [2].

As to `CCOC(=O)c1cnn2ccc(N3CC(F)(F)C[C@@H]3c3cccc(F)c3)cc12` [Example X-2, (R)-ethyl 5-(4,4-difluoro-2-(3-fluorophenyl)pyrrolidin-1-yl)pyrazolo[1,5-a]pyridine-3-carboxylate], the IC50 is 3 nM in assay [1], 3 nM in assay [3] and above 10000 nM in assay [2].

With `O=C(O)c1cnn2ccc(N3C[C@@H](F)C[C@@H]3c3cccc(F)c3)cc12` [Example X-3, 5-((2R,4S)-4-fluoro-2-(3-fluorophenyl)pyrrolidin-1-yl)pyrazolo[1,5-a]pyridine-3-carboxylic acid], the values for the IC50 in assay [1], in assay [3] and in assay [2] were 110 nM, 147 nM and above 10000 nM, respectively.

For the compound `O=C(O)c1cnn2ccc(N3CC(F)(F)C[C@@H]3c3cccc(F)c3)cc12` [Example X-4, (R)-5-(4,4-difluoro-2-(3-fluorophenyl)pyrrolidin-1-yl)pyrazolo[1,5-a]pyridine-3-carboxylic acid], the values for the IC50 in assay [1], in assay [3] and in assay [2] were 666 nM, 1680 nM and above 10000 nM, respectively.

As to `NC(=O)c1cnn2ccc(N3C[C@@H](F)C[C@@H]3c3cccc(F)c3)cc12` [Example X-5, 5-((2R,4S)-4-fluoro-2-(3-fluorophenyl)pyrrolidin-1-yl)pyrazolo[1,5-a]pyridine-3-carboxamide], the IC50 in assay [1] was 7 nM; in assay [3] it was 6 nM; in assay [2] it was above 10000 nM.

With `NC(=O)c1cnn2ccc(N3CC(F)(F)C[C@@H]3c3cccc(F)c3)cc12` [Example X-6, (R)-5-(4,4-difluoro-2-(3-fluorophenyl)pyrrolidin-1-yl)pyrazolo[1,5-a]pyridine-3-carboxamide], the IC50 in assay [1] is 16 nM; in assay [3], 24 nM; in assay [2] it was above 10000 nM.

With `CCOC(=O)c1cnn2ccc(N3C[C@@H](F)C[C@@H]3c3cc(F)cc(C#N)c3)cc12` [Example X-7, ethyl 5-((2R,4S)-2-(3-cyano-5-fluorophenyl)-4-fluoropyrrolidin-1-yl)pyrazolo[1,5-a]pyridine-3-carboxylate], the IC50 in assay [1] turned out to be 2 nM; in assay [3], 1 nM; in assay [2], 4490 nM.

With `CCOC(=O)c1cnn2ccc(N3CC(F)(F)C[C@@H]3c3cc(F)cc(C#N)c3)cc12` [Example X-8, (R)-ethyl 5-(2-(3-cyano-5-fluorophenyl)-4,4-difluoropyrrolidin-1-yl)pyrazolo[1,5-a]pyridine-3-carboxylate], the IC50 in assay [1] is 19 nM; in assay [3], 17 nM; in assay [2], above 10000 nM.

Consider `NC(=O)c1cc(F)cc([C@H]2CC(F)(F)CN2c2ccn3ncc(C(N)=O)c3c2)c1` [Example X-9, (R)-5-(2-(3-carbamoyl-5-fluorophenyl)-4,4-difluoropyrrolidin-1-yl)pyrazolo[1,5-a]pyridine-3-carboxamide], for which the IC50 was 48 nM in assay [1], 37 nM in assay [3] and above 10000 nM in assay [2].

On to `N#Cc1cc(F)cc([C@H]2CC(F)(F)CN2c2ccn3ncc(C(N)=O)c3c2)c1` [Example X-11, (R)-5-(2-(3-cyano-5-fluorophenyl)-4,4-difluoropyrrolidin-1-yl)pyrazolo[1,5-a]pyridine-3-carboxamide], for which the IC50 in assay [1] is 24 nM; in assay [3], 21 nM; in assay [2], above 10000 nM.

Consider `NC(=O)c1cnn2ccc(N3CCCCC3c3cccc(F)c3)cc12` (centres unmarked) [Example X-12, 5-[2-(3-fluorophenyl)piperidin-1-yl]pyrazolo[1,5-a]pyridine-3-carboxamide], for which the IC50 was 97 nM in assay [1], 225 nM in assay [3] and above 10000 nM in assay [2].

For the compound `NC(=O)c1cnn2ccc(N3CCCC3c3ccccc3C(F)(F)F)cc12` (centres unmarked) [Example X-13, 5-{2-[2-(trifluoromethyl)phenyl]pyrrolidin-1-yl}pyrazolo[1,5-a]pyridine-3-carboxamide], the IC50 was 341 nM in assay [1], 712 nM in assay [3] and above 10000 nM in assay [2].

Regarding `CCNC(=O)c1cnn2ccc(N3C[C@@H](F)C[C@@H]3c3cccc(F)c3)cc12` [Example X-14, N-ethyl-5-[(2R,4S)-4-fluoro-2-(3-fluorophenyl)pyrrolidin-1-yl]pyrazolo[1,5-a]pyridine-3-carboxamide], the results for the IC50 in assay [1], in assay [3] and in assay [2] were 8 nM, 6 nM and above 10000 nM, respectively.

Regarding `CN(C)C(=O)c1cnn2ccc(N3C[C@@H](F)C[C@@H]3c3cccc(F)c3)cc12` [Example X-15, 5-[(2R,4S)-4-fluoro-2-(3-fluorophenyl)pyrrolidin-1-yl]-N,N-dimethylpyrazolo[1,5-a]pyridine-3-carboxamide], the values for the IC50 in assay [1], in assay [3] and in assay [2] were 43 nM, 50 nM and above 10000 nM, respectively.

In the case of `CC(C)(C)NC(=O)c1cnn2ccc(N3C[C@@H](F)C[C@@H]3c3cccc(F)c3)cc12` [Example X-16, N-tert-butyl-5-[(2R,4S)-4-fluoro-2-(3-fluorophenyl)pyrrolidin-1-yl]pyrazolo[1,5-a]pyridine-3-carboxamide], the IC50 in assay [1] is 6 nM; in assay [3], 5 nM; in assay [2], above 10000 nM.
